The source of these data is publication PMC11672540 (2024).

As a reminder, the KD is the constant that tells how readily two partners part at equilibrium. A lower KD goes with tighter binding.

What all share (assay): ITC
For orientation: Isothermal titration calorimetry measures the heat released or taken up as one component is titrated into another.

In assay [1] the test system is ML12 (DNA, aptamer, none) TTCAAATCTGCGGCGACTAATTCTTAGTGGTGGTTGCAATGCGCTGGGATGAGTCTAGATTTGAA
Conditions: 0.5x PBS (about 68 mM NaCl, 1.4 mM KCl), 5 mM MgCl2, 23 °C.

The subject of assay [2] is MT2-R1 (DNA, aptamer, none) GGGACGACGCTAGGGGATCTTTTGGGGTTTGTATGGGCGTCGTCCC
Conditions: 137 mM NaCl, 2.7 mM KCl, 1 mM MgCl2; 1x PBS, 23 °C.

For assay [3], the system named is ML4 (DNA, aptamer, none) TTCAAATCTTGGTACGTTCTGCCTTTTCTTATTTTGCTTTGGGTTACCTAGTCTAGATTTGAA
Conditions: 0.5x PBS (about 68 mM NaCl, 1.4 mM KCl), 5 mM MgCl2.

Assay [4] has as its system ML13 (DNA, aptamer, none) TTCAAATCTGAGCAGCCTAGTTACTGACGGGTTTATAGTACTCGCACTGAGTCTAGATTTGAA
Conditions: 0.5x PBS (about 68 mM NaCl, 1.4 mM KCl), 5 mM MgCl2, 23 °C.

Assay [5] has as its system ML11 (DNA, aptamer, none) TTCAAATCTGAGCAGCCTAGTTACTGACGGGTTTATAGTACTCGTATTGAGTCTAGATTTGAA
Conditions: 0.5x PBS (about 68 mM NaCl, 1.4 mM KCl), 5 mM MgCl2, 23 °C.

Assay [6] concerns M13 (DNA, aptamer, none) GGGACGACGGCACGAGGTTATTCGTTGGTTGCACTGCGCTGGGAGGAAGTCGTCCC
Conditions: 137 mM NaCl, 2.7 mM KCl, 1 mM MgCl2; 1x PBS, 23 °C; lowest KD of trial 3.

Assay [7] concerns MT2-R2 (DNA, aptamer, none) GGGACGACGAGGGGATCCATCCAATGGGGTTTGTATACGTCGTCCC
Conditions: 137 mM NaCl, 2.7 mM KCl, 1 mM MgCl2; 1x PBS, 23 °C.

Assay [8] concerns ML7 (DNA, aptamer, none) TTCAAATCTGGTGCCCTTTCGCAGTCGGTTGGTAATGAGATCACTTTAGAGTCTAGATTTGAA
Conditions: 0.5x PBS (about 68 mM NaCl, 1.4 mM KCl), 5 mM MgCl2, 23 °C.

In assay [9] the test system is ML3-mut6 (DNA, aptamer, none) TTCAAATCTTATGTACGTTCTATCGCATGGATGGGATTTTGGGTTACCAAGTCTAGATTTGAA
Conditions: 0.5x PBS (about 68 mM NaCl, 1.4 mM KCl), 5 mM MgCl2, 0.005% Triton X-100, 23 °C, table says NA, 2000 titrant, 50 aptamer.

Assay [10] deals with 84-nt aptaMETH (DNA, aptamer, none) ACTGGAGCTCAATCAGTACACGACGGTTGCAAGTGGGACTCTGGTAGGCTGGGTTAATTTGGGACAAGCTTCAACCATGGAGTA
Conditions: 200 mM NaCl, 5 mM MgCl2; 20 mM Tris pH 7.4, 23 °C.

The test system of assay [11] is ML4-mut2 (DNA, aptamer, none) TTCAAATCTTGGTACGTTCTGCATTTTCTTATTTTGCTTTGGGTTACCTAGTCTAGATTTGAA
Conditions: 0.5x PBS (about 68 mM NaCl, 1.4 mM KCl), 5 mM MgCl2, 0.005% Triton X-100, 23 °C.

The subject of assay [12] is ML3-mut3 (DNA, aptamer, none) TTCAAATCTTATGTACGTTCTATCGCATGGATGTGATTTTGGGTTACCTAGTCTAGATTTGAA
Conditions: 0.5x PBS (about 68 mM NaCl, 1.4 mM KCl), 5 mM MgCl2, 0.005% Triton X-100, 23 °C.

The subject of assay [13] is ML10 (DNA, aptamer, none) TTCAAATCTGAGCAGCCTAGTTACTGACGGGTTTATAGTACTCACATTGAGTCTAGATTTGAA
Conditions: 0.5x PBS (about 68 mM NaCl, 1.4 mM KCl), 5 mM MgCl2, 23 °C.

The test system of assay [14] is ML3-mut5 (DNA, aptamer, none) TTCAAATCTTATGTACGTTCTATCGCATGGATGGGATTTTTGGTTACCTAGTCTAGATTTGAA
Conditions: 0.5x PBS (about 68 mM NaCl, 1.4 mM KCl), 5 mM MgCl2, 0.005% Triton X-100, 23 °C, table says NA, 2000 titrant, 50 aptamer.

For assay [15], the system named is M4 (DNA, aptamer, none) GGGACGACGCACTATGGCTAGGGTTGGTACGGTCGTGAACCGCGGGGTGTCGTCCC
Conditions: 137 mM NaCl, 2.7 mM KCl, 1 mM MgCl2; 1x PBS, 23 °C.

Assay [16] relates to ML4-mut4 (DNA, aptamer, none) TTCAAATCTTGGTACGTTCTGCCTTTACTTATTTTGCTTTGGGTTACCTAGTCTAGATTTGAA
Conditions: 0.5x PBS (about 68 mM NaCl, 1.4 mM KCl), 5 mM MgCl2, 0.005% Triton X-100, 23 °C.

Assay [17] concerns ML3-mut2 (DNA, aptamer, none) TTCAAATCTTATGTACGTACTATCGCATGGATGGGATTTTGGGTTACCTAGTCTAGATTTGAA
Conditions: 0.5x PBS (about 68 mM NaCl, 1.4 mM KCl), 5 mM MgCl2, 0.005% Triton X-100, 23 °C.

The subject of assay [18] is ML4-mut6 (DNA, aptamer, none) TTCAAATCTTGGTACGTTCTGCCTTTTCTTATTTAGCTTTGGGTTACCTAGTCTAGATTTGAA
Conditions: 0.5x PBS (about 68 mM NaCl, 1.4 mM KCl), 5 mM MgCl2, 0.005% Triton X-100, 23 °C.

Assay [19] relates to ML4-mut5 (DNA, aptamer, none) TTCAAATCTTGGTACGTTCTGCCTTTTCTTATATTGCTTTGGGTTACCTAGTCTAGATTTGAA
Conditions: 0.5x PBS (about 68 mM NaCl, 1.4 mM KCl), 5 mM MgCl2, 0.005% Triton X-100, 23 °C.

For assay [20], the system named is ML3-mut1 (DNA, aptamer, none) TTCAAATCTTATGTAAGTTCTATCGCATGGATGGGATTTTGGGTTACCTAGTCTAGATTTGAA
Conditions: 0.5x PBS (about 68 mM NaCl, 1.4 mM KCl), 5 mM MgCl2, 0.005% Triton X-100, 23 °C.

For assay [21], the system named is ML3 (DNA, aptamer, none) TTCAAATCTTATGTACGTTCTATCGCATGGATGGGATTTTGGGTTACCTAGTCTAGATTTGAA
Conditions: 0.5x PBS (about 68 mM NaCl, 1.4 mM KCl), 5 mM MgCl2; 0.5x PBS pH 7.4, 0.005% Triton X-100, 23 °C; 9.9 at 2 mM, 34.3 at 1 mM Mg2+.

Assay [22] relates to ML4-mut1 (DNA, aptamer, none) TTCAAATCTTGGTACGTACTGCCTTTTCTTATTTTGCTTTGGGTTACCTAGTCTAGATTTGAA
Conditions: 0.5x PBS (about 68 mM NaCl, 1.4 mM KCl), 5 mM MgCl2, 0.005% Triton X-100, 23 °C.

Assay [23] relates to ML3-mut4 (DNA, aptamer, none) TTCAAATCTTATGTACGTTCTATCGCATGGATGGGATTATGGGTTACCTAGTCTAGATTTGAA
Conditions: 0.5x PBS (about 68 mM NaCl, 1.4 mM KCl), 5 mM MgCl2, 0.005% Triton X-100, 23 °C.

The subject of assay [24] is ML4-mut7 (DNA, aptamer, none) TTCAAATCTTGGTACGTTCTGCCTTTTCTTATTTTGCTATGGGTTACCTAGTCTAGATTTGAA
Conditions: 0.5x PBS (about 68 mM NaCl, 1.4 mM KCl), 5 mM MgCl2, 0.005% Triton X-100, 23 °C.

The test system of assay [25] is ML4-mut3 (DNA, aptamer, none) TTCAAATCTTGGTACGTTCTGCCTATTCTTATTTTGCTTTGGGTTACCTAGTCTAGATTTGAA
Conditions: 0.5x PBS (about 68 mM NaCl, 1.4 mM KCl), 5 mM MgCl2, 0.005% Triton X-100, 23 °C.

For assay [26], the system named is MT2-R4 (DNA, aptamer, none) GGGACGACGGCAATTGCCGGTGCAGGATCTGAATTATCGTCGTCCC
Conditions: 137 mM NaCl, 2.7 mM KCl, 1 mM MgCl2; 1x PBS, 23 °C.

Assay [27] has as its system Aptamer-2 (DNA, aptamer, none) AGGAATTCAGATCTCCCTGCAGGTGGTGTTTTTTTTGTGTGCTGTGTTTTTGTGATGCATGCTCGAGGAGCTCAGGATCCCG
Conditions: 10 mM NaCl, 0.5 mM KCl, 0.2 mM MgCl2, 0.1 mM CaCl2; 2 mM Tris-HCl, 23 °C; very weak or no binding.

Assay [28] has as its system MT2-R3 (DNA, aptamer, none) GGGACGACGGTACCCGCCGGTGCAGGATCTGGGGTGGTGTCGTCCC
Conditions: 137 mM NaCl, 2.7 mM KCl, 1 mM MgCl2; 1x PBS, 23 °C.

Each structure is given as a SMILES string.

On to `CC(N)Cc1ccccc1` (stereo not shown), for which the KD in assay [1] stood at 18.2 ± 0.5 µM; in assay [2], 5.7 ± 0.2 µM; in [3] (0.5x PBS, 23 °C), 117 ± 4 µM; in [4] (double titration), 140 ± 3.9 µM.

For the compound `CCCC(C(=O)c1ccc2c(c1)OCO2)N1CCCC1` (stereo not shown), in assay [3] (0.5x PBS, 23 °C), the KD worked out at 344 ± 23 µM.

Compound `CNC(C)Cc1ccc(O)cc1` (stereo not shown) yielded a KD in [3] (0.5x PBS, 23 °C) of 255 ± 8 µM.

In turn, `CNC(C)Cc1ccc2c(c1)OCO2` (stereo not shown) displayed a KD in assay [3] (0.5x PBS, 23 °C) of 223 ± 8 µM.

As to `CN[C@@H](C)Cc1ccccc1`, the KD in [5] was 2.4 ± 0.1 µM; in assay [6], 3.3 µM; in assay [7], 5.0 ± 0.1 µM; in assay [8] it was 1.30 ± 0.03 µM; in assay [1] it was 5.7 ± 0.3 µM; in [9], > 1 mM. Further, the KD in assay [10] was 364 ± 28 µM; in assay [11] it was 4.0 ± 0.1 µM; in assay [12], 1.4 ± 0.1 µM; in assay [13], 1.9 ± 0.1 µM; in [2], 2.5 ± 0.1 µM; in assay [14] it was > 1 mM. Moreover, the KD turned out to be 2.5 ± 0.1 µM in [3] (0.5x PBS pH 7.4, 0.005% Triton X-100, 23 °C, 16.2 at 2 mM, 65.2 at 1 mM Mg2+); 12 µM in [15]; 4.9 ± 0.2 µM in assay [16]; 39.0 ± 1.8 µM in assay [17]; 3.8 ± 0.1 µM in [18]; 3.3 ± 0.1 µM in [19]. Besides, the KD in [20] came out at 408 ± 16 µM; in [21], 1.5 ± 0.1 µM; in [22], 67.1 ± 4.1 µM; in assay [23], 72.5 ± 3.1 µM; in assay [24], 64.3 ± 3.9 µM; in [4] it was 7.0 ± 0.4 µM. The KD in [25] is 3.2 ± 0.1 µM; in assay [26], 10.1 ± 0.7 µM; in assay [27], > 1 mM; in assay [28], 18.0 ± 1.1 µM.

With `CN[C@@H](C)[C@@H](O)c1ccccc1`, in assay [3] (0.5x PBS, 23 °C), the KD was 372 ± 24 µM.

As to `CN[C@H](C)Cc1ccccc1`, the KD was > 1000 µM in [10]; 450 ± 21 µM in assay [3] (0.5x PBS, 23 °C); > 1 mM in assay [27].

Compound `COC(=O)C(c1ccccc1)C1CCCCN1` (stereo not shown) came in with a KD in assay [3] (0.5x PBS, 23 °C) of 749 ± 10 µM.
